Data taken from paper PMC11700842 (The Journal of Antibiotics, 2024).
pIC50: −log10 of the molar value. ≈ marks a conversion by molar mass, not a printed value. Where two headings read alike, the source gives them in different places.

Legend:
E. faecium E745 = experiment: microbe, parasite or virus in culture; format: cell-based; conditions: Enterococcus faecium, E745, 24 h, read-out: MIC99 E. faecium E745
M. smegmatis [1] = experiment: Ethidium bromide efflux assay in M. smegmatis; format: cell-based; conditions: for % Change in fluorescence (efflux) / Rate of efflux (ethidium bromide): analogues 100 µM, verapamil 102 µM, with glucose; for % Change in fluorescence (efflux): end of 60 min assay; for Rate of efflux (ethidium bromide): rate from 0–9 minutes
M. bovis BCG [2] = format: cell-based; conditions: analogues 100 µM, verapamil 102 µM, with glucose; for % Change in fluorescence (accumulation): end of 60 min assay; for Rate of accumulation (ethidium bromide): rate from 5–14 minutes
M. smegmatis [3] = experiment: Ethidium bromide accumulation assay in M. smegmatis; format: cell-based; conditions: analogues 100 µM, verapamil 102 µM, with glucose; for % Change in fluorescence (accumulation): end of 60 min assay; for Rate of accumulation (ethidium bromide): rate from 5–14 minutes
M. bovis BCG [4] = format: cell-based; conditions: analogues 100 µM, verapamil 102 µM, with glucose; for % Change in fluorescence (efflux): end of 60 min assay; for Rate of efflux (ethidium bromide): rate from 0–9 minutes
M. smegmatis [5] = experiment: MIC determination (resazurin) against M. smegmatis; format: cell-based, M. smegmatis mc^2155; conditions: Mycolicibacterium smegmatis; lowest concentration reducing growth to 1% or less; 21 h + 3 h resazurin; N = 3
dopamine transporter [6] = tested on: dopamine transporter; set-up: method as in PMID 28274674; conditions: human embryonic kidney 293 cells; 20 nM [3H] dopamine over 5 min at 37 °C; read-out: IC50 against the dopamine transporter; cited from earlier work
dopamine transporter [7] = format: cell-based; conditions: based on IC50 from Paudel et al.
[8] = tested on: M. bovis BCG membrane electric potential; format: cell-based
[9] = target: T1, human dopamine transporter (Homo sapiens, UniProt Q01959); experiment: cell-based; format: cell-based; conditions: for pIC50: CHO cells transfected with human dopamine transporter, 0.3 µM [3H] dopamine, 90 min, read-out: IC50 against dopamine transporter; for pIC50 / inhibition at 0.1 µM: N = 3; for inhibition at 0.1 µM: CHO, dopamine transporter uptake, 100 nM
T1 construct: host or cells: Chinese hamster ovary (CHO) cells
T1 sequence (Q01959 whole entry): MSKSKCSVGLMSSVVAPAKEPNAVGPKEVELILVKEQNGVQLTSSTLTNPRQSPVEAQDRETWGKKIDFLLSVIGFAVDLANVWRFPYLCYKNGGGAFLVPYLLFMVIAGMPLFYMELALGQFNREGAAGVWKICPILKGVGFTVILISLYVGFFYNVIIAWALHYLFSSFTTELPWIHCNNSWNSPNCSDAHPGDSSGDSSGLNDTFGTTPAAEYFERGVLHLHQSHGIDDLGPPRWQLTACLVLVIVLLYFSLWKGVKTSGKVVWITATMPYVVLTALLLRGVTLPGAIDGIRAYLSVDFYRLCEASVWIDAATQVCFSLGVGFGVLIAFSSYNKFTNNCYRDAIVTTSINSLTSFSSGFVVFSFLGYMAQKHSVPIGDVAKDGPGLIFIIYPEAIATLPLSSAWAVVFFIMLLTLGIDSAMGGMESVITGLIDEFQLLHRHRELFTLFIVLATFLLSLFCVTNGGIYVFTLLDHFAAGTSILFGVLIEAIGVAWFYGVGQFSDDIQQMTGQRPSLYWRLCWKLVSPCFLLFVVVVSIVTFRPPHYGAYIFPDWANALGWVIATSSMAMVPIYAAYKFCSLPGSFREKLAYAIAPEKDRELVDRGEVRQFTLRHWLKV
Description: This assay was performed by Eurofins Discovery and is based on a reported method. […] Following incubation, the amount of [^3H] dopamine was quantified using a scintillation counter (Topcount, Packard). The results were expressed as a percentage inhibition relative to the control uptake of [^3H] dopamine.
In this assay, five concentrations of each analogue were tested, in triplicate, ranging from 10 µM to 100 nM (Supplementary Fig. S2).
26 Supplementary Figure S2: Dopamine transporter uptake assays monitoring
The uptake of [3H] dopamine into Chinese
28 hamster ovary cells, transfected with the human dopamine transporter, was used to […]

[10] = M. bovis BCG, test compounds 100 µM, CCCP 25 µM, Fig. 3

| Compound | MIC99 (E. faecium E745) [µM] | % Change in fluorescence (efflux) (M. smegmatis [1]) | Rate of efflux (ethidium bromide) (M. smegmatis [1]) | % Change in fluorescence (accumulation) (M. bovis BCG [2]) [%] | Rate of accumulation (ethidium bromide) (M. bovis BCG [2]) [RFUs/min] | % Change in fluorescence (accumulation) (M. smegmatis [3]) [%] | Rate of accumulation (ethidium bromide) (M. smegmatis [3]) [RFUs/min] | % Change in fluorescence (efflux) (M. bovis BCG [4]) | Rate of efflux (ethidium bromide) (M. bovis BCG [4]) | MIC99 (M. smegmatis [5]) [µM] | pIC50 (dopamine transporter [6]) | difference between MIC99 against M. bovis BCG and IC50 against the dopamine transporter (dopamine transporter [7]) [×] | impact on membrane electric potential (in words) [8, 10] | pIC50 [9] | inhibition at 0.1 µM [9] [%] | difference between MIC99 against M. bovis BCG and IC50 against the dopamine transporter ([9]; based on data of this study) [×] | effect on ethidium bromide efflux (in words) (M. smegmatis [1]; 100 µM) | impact on membrane electric potential (in words) [8] |
| --- | --- | --- | --- | --- | --- | --- | --- | --- | --- | --- | --- | --- | --- | --- | --- | --- | --- | --- |
| Fc1ccc(CN2CCN(CCOC(c3ccc(F)cc3)c3ccc(F)cc3)CC2)cc1 [Compound 5] | > 100 | –25 ± 0.2% | –1700 ± 200 RFUs/min | 39 ± 1 | 130 ± 130 | 175 ± 4 | 1300 ± 20 | –20 ± 0.02% | –1500 ± 50 RFUs/min | > 100 |  |  |  |  |  |  |  |  |
| Oc1ccc(CN2CCN(CCOC(c3ccc(F)cc3)c3ccc(F)cc3)CC2)cc1 [Compound 6] | > 100 | –49 ± 0.3% | –2500 ± 200 RFUs/min | 36 ± 3 | 140 ± 480 | 75 ± 2 | 1100 ± 40 | –21 ± 0.2% | –1400 ± 330 RFUs/min | > 100 |  |  |  |  |  |  |  |  |
| Fc1ccc(C(OCCN2CCC(Cc3ccccc3)CC2)c2ccc(F)cc2)cc1 [Compound 3] | 25 (≈ 10.5 µg/mL) | –11 ± 0.1% | –1400 ± 200 RFUs/min | 67 ± 1 | 480 ± 300 | 286 ± 1 | 3000 ± 100 | –18 ± 6% | –1300 ± 200 RFUs/min | 50 | 5.17 | 3.7 | greater impact than vanoxerine | 6.85 | 35.8 | 179 |  |  |
| Fc1ccc(C(OCCN2CCNCC2)c2ccc(F)cc2)cc1 [Compound 4] | > 100 | –57 ± 0.1% | –4500 ± 400 RFUs/min | 46 ± 2 | 800 ± 2000 | 57 ± 6 | 2700 ± 310 | –16 ± 0.4% | –1000 ± 800 RFUs/min | > 100 |  |  |  |  |  |  |  |  |
| c1ccc(CCCN2CCN(CCOC(c3ccccc3)c3ccccc3)CC2)cc1 [GBR12935, 1-[2-(Diphenylmethoxy)ethyl]-4-(3-phenylpropyl)piperazine, reference compound] | > 100 | –37 ± 0.2% | –2000 ± 100 RFUs/min | 34 ± 2 | 160 ± 240 | 90 ± 3 | 1100 ± 40 | –16 ± 0.1% | –1300 ± 150 RFUs/min | 100 |  |  |  |  |  |  |  |  |
| OC(CCN1CCN(CCOC(c2ccc(F)cc2)c2ccc(F)cc2)CC1)c1ccccc1 (centres unmarked) [Compound 9] | > 100 | –11 ± 0.1% | –1100 ± 110 RFUs/min | 68 ± 1 | 1100 ± 1000 | 349 ± 1 | 4500 ± 40 | –16 ± 0.4% | –1200 ± 600 RFUs/min | 100 |  |  | greater impact than vanoxerine | > 7.00 | 98.2 |  |  |  |
| CCCCCCCCCC(=O)OC(CCN1CCN(CCOC(c2ccc(F)cc2)c2ccc(F)cc2)CC1)c1ccccc1 (centres unmarked) [Compound 11] | > 100 | –59 ± 0.1% | –5600 ± 160 RFUs/min | 45 ± 1 | 400 ± 300 | 39 ± 2 | 1000 ± 160 | –28 ± 25% | –1900 ± 400 RFUs/min | > 100 |  |  | no impact on the electric potential |  |  |  | no effect on ethidium bromide efflux |  |
| N#CC(C#N)=NNc1cccc(Cl)c1 [CCCP, Carbonyl cyanide m-chlorophenyl hydrazone, reference compound] |  |  |  |  |  |  |  |  |  |  |  |  |  |  |  |  |  | greatest loss of electric potential |
| Fc1ccc(C(OCCN2CCN(CC3CCCCC3)CC2)c2ccc(F)cc2)cc1 [Compound 7] | 100 (≈ 42.9 µg/mL) | –43 ± 0.2% | –2200 ± 60 RFUs/min | 32 ± 1 | 120 ± 90 | 94 ± 2 | 1000 ± 16 | –21 ± 0.1% | –1600 ± 100 RFUs/min | 100 |  |  |  |  |  |  |  |  |
| O=C(c1ccccc1)N1CCN(CCOC(c2ccc(F)cc2)c2ccc(F)cc2)CC1 [Compound 8] | > 100 | –63 ± 0.1% | –4300 ± 400 RFUs/min | 26 ± 2 | 120 ± 460 | 37 ± 2 | 600 ± 30 | –26 ± 0.2% | –1799 ± 400 RFUs/min | > 100 |  |  |  |  |  |  |  |  |
| COc1ccc(CCN(C)CCCC(C#N)(c2ccc(OC)c(OC)c2)C(C)C)cc1OC (centres unmarked) [verapamil, reference compound] |  |  |  | 52 ± 6 | 640 ± 1400 | 210 ± 7 | 2900 ± 140 |  |  |  |  |  |  |  |  |  |  |  |
| C#CCOC(CCN1CCN(CCOC(c2ccc(F)cc2)c2ccc(F)cc2)CC1)c1ccccc1 (centres unmarked) [Compound 10] | > 100 | –13 ± 0.1% | –1200 ± 200 RFUs/min | 66 ± 1 | 1200 ± 700 | 323 ± 7 | 4500 ± 260 | –13 ± 0.3% | –940 ± 700 RFUs/min | 100 |  |  | greater impact than vanoxerine | > 7.00 | 95 |  |  |  |
